The target of this experiment is Inward rectifier potassium channel 2 (Mus musculus) (UniProt P35561). The experiment can be described thus: Kir2.1 thallium flux blockade potency – cell-based, FluxOR, SAR follow-up (AID 504557). Conditions: Kir2.1 stable cells, FluxOR thallium flux fluorescence; for activity change, negative = inhibition: at 71 µM (top of the series).

SMILES strings stand for the structures. Activity calls are given as the source filed them.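 Rule for the calls: active = blocks current through the Kir2.1 potassium channel at one or more tested doses and yields a dose response curve; inactive = no block at any dose, or no dose response.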

From PubChem BioAssay AID504557 (Johns Hopkins Ion Channel Center, 2011) come the findings set out here.

Chain of Inward rectifier potassium channel 2 (Mus musculus) (P35561 whole entry, looked up): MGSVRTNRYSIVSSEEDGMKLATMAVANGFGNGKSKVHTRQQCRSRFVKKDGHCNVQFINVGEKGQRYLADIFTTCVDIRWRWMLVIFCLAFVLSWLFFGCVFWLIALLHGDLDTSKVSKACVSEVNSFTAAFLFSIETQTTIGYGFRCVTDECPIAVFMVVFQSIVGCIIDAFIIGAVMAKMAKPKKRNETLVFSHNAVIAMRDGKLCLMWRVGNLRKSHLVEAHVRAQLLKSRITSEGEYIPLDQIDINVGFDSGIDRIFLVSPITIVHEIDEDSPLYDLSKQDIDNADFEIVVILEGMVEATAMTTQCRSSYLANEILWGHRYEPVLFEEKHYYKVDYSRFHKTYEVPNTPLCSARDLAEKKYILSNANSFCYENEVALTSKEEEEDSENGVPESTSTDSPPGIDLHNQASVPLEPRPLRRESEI

With `Cc1ccc(S(=O)(=O)N[C@@H](C)c2ccccc2)cc1`, the IC50 is 15.2 µM.
Consider `C[C@@H](NS(C)(=O)=O)c1ccccc1`, for which the “activity change, negative = inhibition” value was “inactive”.
Turning to `C[C@@H](NS(=O)(=O)c1cc(Cl)cc(Cl)c1O)c1ccccc1`, the “activity change, negative = inhibition” value was “inactive”.
As for `C[C@H](NS(=O)(=O)c1ccccc1)c1ccccc1`, the IC50 is 4.9 µM.
As to `C[C@@H](NS(=O)(=O)c1ccc(Br)cc1)c1ccccc1`, the IC50 was 25.3 µM.
Still for that read-out and setting: in the case of `Cc1ccc2nc(NCc3ccccc3)[nH]c2c1` it was 13.6 µM; in that of `C[C@@H](NS(=O)(=O)c1cccc(Br)c1)c1ccccc1`, 7.59 µM.
With `O=S(=O)(c1ccc(F)cc1)N1CCCc2ccccc21`, the “activity change, negative = inhibition” value was “inactive”.
In the case of `C[C@H](NS(C)(=O)=O)c1ccccc1`, the IC50 is 4.74 µM.
Regarding `CC(O)CNCCCOc1cccc(Oc2ccccc2)c1` (configuration not stated), the IC50 is 0.679 µM.
For the compound `C[C@H](NS(=O)(=O)c1ccc(Br)cc1)c1ccccc1`, the IC50 is 7.14 µM.
As to `Cc1ccc(Nc2cc(C)nc3c(C)cccc23)cc1`, the IC50 is 7.57 µM.
Take `C[C@H](NS(=O)(=O)c1cc(Cl)cc(Cl)c1O)c1ccccc1`: the IC50 was 34.1 µM.
Same read-out and setting: under `Cc1noc(C)c1COC(=O)CCN1c2ccccc2Sc2ccccc21` stands 7.6 µM.
Turning to `CC(NS(=O)(=O)c1ccc(Br)cc1)c1ccccc1` (configuration not stated), the IC50 is 6.93 µM.
As to `c1ccc(CNc2c3ccccc3nc3ccccc23)cc1`, the IC50 was 13.3 µM.
`Cc1ccc(C)c(OCCCNCc2ccccc2)c1`: the IC50 is 1.38 µM.
Consider `Cc1ccc(S(=O)(=O)N[C@H](C)c2ccccc2)cc1`, for which the IC50 was 9.46 µM.
As to `C[C@H](NS(=O)(=O)c1ccccc1Br)c1ccccc1`, the IC50 is 12.9 µM.
Turning to `C[C@@H](NS(=O)(=O)c1ccccc1Br)c1ccccc1`, the concentration for half-maximal inhibition (IC50) was 13 µM.
Regarding `C[C@@H](NS(=O)(=O)c1ccc(Cl)cc1)c1ccccc1`, the IC50 is 13.4 µM.
As to `c1ccc(COc2ccc(OCCCNC3CCCC3)cc2)cc1`, the IC50 was 11.8 µM.
Regarding `C[C@H](NS(=O)(=O)c1ccc(Cl)cc1)c1ccccc1`, the half-inhibitory concentration (IC50) was 11.7 µM.
In the case of `C[C@@H](NS(=O)(=O)c1ccccc1)c1ccccc1`, the “activity change, negative = inhibition” value is “inactive”.
On the same count and under the same terms, under `O=C(NCC1CCCCN1)c1cc(OCC(F)(F)F)ccc1OCC(F)(F)F` (configuration not stated) stands “inactive”.
Take `Cc1ccc2nc(N3CCN(CCO)CC3)nc(-c3ccccc3)c2c1`: the IC50 is 13.9 µM.
`C[C@H](NS(=O)(=O)c1cccc(Br)c1)c1ccccc1`: the IC50 was 11 µM.
